In brackets after ≈: the same amount, converted by molar mass.

The values that follow come from ChEMBL document CHEMBL1158385, “New and selective ryanodine receptor activators for insect control” (Bioorg Med Chem, 2009).

Series [1] is described as follows: Solubility in water at 20 degC. In kind it is physicochemical.
A short description of a further series: physchem. As to conditions: octanol/water.
The nature of series [2]: Activation of ryanodine receptor-mediated calcium release in Heliothis virescens neurons.
In the next series the target is Ryanodine receptor 1 (Mus musculus, UniProt E9PZQ0). As to the kind of experiment: Activation of ryanodine receptor 1 in mouse C2C12 cells assessed as induction of calcium mobilization. In kind it is cell-based. For orientation: Calcium flux is commonly read through the fluorescence of an indicator in the cells.
Series [3] in a line: Activation of ryanodine receptor in Periplaneta americana neurons.
The nature of series [4]: Activation of Heliothis virescens recombinant ryanodine receptor.
The test system of the next series is PC-12. As to the kind of experiment: Selectivity for Drosophila melanogaster ryanodine receptor over ryanodine receptor 2 in rat PC12 cells. Format: cell-based.
Series [5] can be described thus: Octanol-water partition coefficient, log P at 20 degC. Format: physicochemical.
The next series concerns Spodoptera frugiperda. Kind of series: Insecticidal activity against Spodoptera frugiperda larvae. Format: functional, organism-based.
A further series relates to Heliothis virescens. As to the kind of experiment: Insecticidal activity against Heliothis virescens larvae. In kind it is functional, organism-based.
Series [6] deals with Ryanodine receptor 2 (Homo sapiens, UniProt Q92736). Kind of series: Activation of ryanodine receptor in human IMR32 cells assessed as induction of calcium mobilization. In kind it is cell-based, IMR-32.
Chain of Ryanodine receptor 2 (Homo sapiens, UniProt Q92736) (Q92736 whole entry): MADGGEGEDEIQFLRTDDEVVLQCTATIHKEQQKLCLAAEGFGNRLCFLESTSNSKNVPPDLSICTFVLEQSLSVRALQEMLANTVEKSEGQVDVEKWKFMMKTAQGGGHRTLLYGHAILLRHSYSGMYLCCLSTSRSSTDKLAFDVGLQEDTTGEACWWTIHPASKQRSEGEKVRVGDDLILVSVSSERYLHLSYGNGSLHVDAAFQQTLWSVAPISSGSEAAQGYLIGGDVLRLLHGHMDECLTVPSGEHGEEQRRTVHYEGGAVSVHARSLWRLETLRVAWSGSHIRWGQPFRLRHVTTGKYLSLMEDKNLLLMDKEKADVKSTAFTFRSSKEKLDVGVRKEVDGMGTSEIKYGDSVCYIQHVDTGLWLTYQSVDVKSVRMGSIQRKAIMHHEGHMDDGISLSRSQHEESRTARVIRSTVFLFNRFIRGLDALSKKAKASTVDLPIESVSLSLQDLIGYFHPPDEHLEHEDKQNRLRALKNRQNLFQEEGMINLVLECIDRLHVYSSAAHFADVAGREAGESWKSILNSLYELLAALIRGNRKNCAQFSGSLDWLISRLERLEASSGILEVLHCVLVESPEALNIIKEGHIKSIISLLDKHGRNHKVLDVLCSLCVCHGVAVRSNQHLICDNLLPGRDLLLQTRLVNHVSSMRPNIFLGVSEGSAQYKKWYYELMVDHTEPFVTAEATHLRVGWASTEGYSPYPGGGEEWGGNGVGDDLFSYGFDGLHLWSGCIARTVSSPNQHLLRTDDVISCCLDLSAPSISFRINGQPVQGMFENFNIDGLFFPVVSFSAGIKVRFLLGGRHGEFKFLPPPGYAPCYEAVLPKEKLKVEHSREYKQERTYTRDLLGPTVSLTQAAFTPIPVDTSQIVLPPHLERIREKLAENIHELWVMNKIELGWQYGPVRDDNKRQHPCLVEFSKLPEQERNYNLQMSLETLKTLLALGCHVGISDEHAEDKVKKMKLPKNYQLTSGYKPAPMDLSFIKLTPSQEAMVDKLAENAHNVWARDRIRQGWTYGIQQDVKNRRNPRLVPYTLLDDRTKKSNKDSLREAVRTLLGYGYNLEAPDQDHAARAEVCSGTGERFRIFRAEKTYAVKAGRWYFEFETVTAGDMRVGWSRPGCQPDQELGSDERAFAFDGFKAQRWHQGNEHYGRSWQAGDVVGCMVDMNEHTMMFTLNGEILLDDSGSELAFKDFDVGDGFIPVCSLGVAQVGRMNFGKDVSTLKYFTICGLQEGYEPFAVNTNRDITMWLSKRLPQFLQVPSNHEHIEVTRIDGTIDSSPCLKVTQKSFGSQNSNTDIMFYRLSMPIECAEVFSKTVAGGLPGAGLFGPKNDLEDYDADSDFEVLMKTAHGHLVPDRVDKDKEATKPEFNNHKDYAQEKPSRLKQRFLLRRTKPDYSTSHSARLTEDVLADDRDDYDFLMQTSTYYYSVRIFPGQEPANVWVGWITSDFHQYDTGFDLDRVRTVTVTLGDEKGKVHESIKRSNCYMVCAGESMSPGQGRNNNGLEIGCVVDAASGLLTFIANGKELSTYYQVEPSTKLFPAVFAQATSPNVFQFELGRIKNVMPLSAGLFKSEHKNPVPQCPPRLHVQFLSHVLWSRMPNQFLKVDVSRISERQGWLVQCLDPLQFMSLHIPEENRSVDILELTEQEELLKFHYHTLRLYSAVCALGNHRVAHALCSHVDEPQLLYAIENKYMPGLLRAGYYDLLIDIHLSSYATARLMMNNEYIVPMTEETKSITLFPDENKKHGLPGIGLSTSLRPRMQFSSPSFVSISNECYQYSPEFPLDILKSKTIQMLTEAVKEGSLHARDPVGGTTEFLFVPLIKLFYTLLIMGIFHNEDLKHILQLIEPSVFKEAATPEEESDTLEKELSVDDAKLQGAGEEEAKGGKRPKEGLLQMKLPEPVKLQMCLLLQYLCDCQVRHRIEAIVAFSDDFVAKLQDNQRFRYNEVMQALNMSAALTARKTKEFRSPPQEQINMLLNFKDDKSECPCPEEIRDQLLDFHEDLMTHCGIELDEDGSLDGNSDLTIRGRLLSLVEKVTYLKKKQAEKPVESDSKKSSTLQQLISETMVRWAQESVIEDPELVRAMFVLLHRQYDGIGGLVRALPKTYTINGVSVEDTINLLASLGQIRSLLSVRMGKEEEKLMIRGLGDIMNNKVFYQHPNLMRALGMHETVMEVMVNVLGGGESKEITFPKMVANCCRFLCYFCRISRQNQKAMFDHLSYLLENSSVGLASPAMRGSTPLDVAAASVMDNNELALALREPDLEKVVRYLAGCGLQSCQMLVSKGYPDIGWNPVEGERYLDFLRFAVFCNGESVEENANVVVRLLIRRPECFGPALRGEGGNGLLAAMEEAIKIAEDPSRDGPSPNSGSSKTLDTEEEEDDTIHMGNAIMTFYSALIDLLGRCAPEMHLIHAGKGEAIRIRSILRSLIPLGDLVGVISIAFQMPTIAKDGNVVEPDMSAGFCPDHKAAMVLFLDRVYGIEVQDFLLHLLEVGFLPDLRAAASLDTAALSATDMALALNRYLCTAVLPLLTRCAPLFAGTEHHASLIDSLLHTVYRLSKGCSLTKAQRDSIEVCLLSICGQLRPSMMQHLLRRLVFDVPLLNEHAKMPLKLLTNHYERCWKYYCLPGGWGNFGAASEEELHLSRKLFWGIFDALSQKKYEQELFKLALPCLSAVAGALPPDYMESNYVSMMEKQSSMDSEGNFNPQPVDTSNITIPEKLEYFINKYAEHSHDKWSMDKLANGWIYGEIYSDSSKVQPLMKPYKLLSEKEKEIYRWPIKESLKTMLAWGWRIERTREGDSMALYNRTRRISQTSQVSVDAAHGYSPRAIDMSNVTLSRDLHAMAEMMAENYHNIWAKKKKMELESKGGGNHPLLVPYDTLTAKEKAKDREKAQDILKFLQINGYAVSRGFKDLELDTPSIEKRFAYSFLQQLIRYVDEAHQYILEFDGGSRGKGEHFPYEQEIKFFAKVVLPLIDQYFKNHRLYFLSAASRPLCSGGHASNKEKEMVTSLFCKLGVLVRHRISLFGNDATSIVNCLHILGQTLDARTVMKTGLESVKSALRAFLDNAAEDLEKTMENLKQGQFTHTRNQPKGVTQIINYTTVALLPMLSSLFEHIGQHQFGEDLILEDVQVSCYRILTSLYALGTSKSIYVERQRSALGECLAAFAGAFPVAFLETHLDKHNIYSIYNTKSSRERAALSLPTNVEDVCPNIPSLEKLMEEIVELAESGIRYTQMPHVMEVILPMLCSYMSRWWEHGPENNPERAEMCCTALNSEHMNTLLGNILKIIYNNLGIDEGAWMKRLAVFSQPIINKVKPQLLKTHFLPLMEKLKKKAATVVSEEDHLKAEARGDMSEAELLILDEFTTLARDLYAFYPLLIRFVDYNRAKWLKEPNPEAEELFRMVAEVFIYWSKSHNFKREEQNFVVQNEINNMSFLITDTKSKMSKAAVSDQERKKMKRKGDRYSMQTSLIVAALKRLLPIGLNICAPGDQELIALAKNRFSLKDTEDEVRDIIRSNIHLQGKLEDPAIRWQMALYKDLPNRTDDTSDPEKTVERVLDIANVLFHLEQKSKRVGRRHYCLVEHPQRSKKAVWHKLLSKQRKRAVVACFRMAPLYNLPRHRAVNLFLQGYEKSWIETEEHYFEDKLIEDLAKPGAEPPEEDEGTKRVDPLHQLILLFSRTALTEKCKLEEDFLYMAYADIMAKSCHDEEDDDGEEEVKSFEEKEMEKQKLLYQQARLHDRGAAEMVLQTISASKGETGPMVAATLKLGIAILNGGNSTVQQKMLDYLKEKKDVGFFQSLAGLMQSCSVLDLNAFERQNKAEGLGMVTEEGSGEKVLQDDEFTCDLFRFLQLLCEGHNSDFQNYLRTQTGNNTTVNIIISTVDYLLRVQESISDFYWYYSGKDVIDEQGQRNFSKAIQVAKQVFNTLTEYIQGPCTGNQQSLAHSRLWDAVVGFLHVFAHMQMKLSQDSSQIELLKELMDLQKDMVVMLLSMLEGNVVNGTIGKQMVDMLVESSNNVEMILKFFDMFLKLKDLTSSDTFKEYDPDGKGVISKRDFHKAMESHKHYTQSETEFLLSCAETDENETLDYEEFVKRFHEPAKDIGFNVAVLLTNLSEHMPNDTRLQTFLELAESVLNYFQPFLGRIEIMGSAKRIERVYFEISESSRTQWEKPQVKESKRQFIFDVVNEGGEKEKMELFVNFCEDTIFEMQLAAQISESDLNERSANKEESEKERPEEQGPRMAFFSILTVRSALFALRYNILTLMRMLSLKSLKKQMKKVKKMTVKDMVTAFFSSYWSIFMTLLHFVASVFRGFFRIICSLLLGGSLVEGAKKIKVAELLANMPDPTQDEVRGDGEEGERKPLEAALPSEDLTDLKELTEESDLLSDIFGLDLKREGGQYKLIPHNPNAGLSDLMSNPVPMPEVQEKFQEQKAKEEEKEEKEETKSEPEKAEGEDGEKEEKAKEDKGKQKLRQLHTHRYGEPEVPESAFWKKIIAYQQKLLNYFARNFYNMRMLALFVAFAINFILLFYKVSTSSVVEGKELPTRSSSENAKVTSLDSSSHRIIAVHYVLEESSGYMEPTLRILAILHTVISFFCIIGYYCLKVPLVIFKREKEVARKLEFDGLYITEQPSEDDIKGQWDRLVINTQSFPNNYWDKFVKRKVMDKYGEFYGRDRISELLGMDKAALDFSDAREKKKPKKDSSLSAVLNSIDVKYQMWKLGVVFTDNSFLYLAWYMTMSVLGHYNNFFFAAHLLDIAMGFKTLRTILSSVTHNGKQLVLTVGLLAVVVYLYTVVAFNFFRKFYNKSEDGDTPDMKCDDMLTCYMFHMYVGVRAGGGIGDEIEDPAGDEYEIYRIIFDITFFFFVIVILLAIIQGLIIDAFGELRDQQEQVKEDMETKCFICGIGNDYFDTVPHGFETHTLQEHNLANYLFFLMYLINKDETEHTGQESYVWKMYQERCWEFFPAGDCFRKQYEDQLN
The next series has as its system C2C12. Kind of series: Selectivity for Heliothis virescens recombinant ryanodine receptor over ryanodine receptor 1 in mouse C2C12 cells. Format: cell-based.
The test system of another series is Plutella xylostella. Kind of series: Insecticidal activity against Plutella xylostella larvae. Format: functional, organism-based.
Series [7] concerns the target Ryanodine receptor 2 (Rattus norvegicus, UniProt B0LPN4). Kind of series: Activation of ryanodine receptor 2 in rat PC12 cells assessed as induction of calcium mobilization. Format: cell-based, PC-12.

Description for physchem: Octanol-water partition coefficient, log P at 24.9 degC

In general, solubility refers to the dissolved amount per volume that the medium holds. A word on the logP: it is a log measure of how a compound divides between an organic and an aqueous phase. In the case of `Cc1cc(C(F)(C(F)(F)F)C(F)(F)F)ccc1NC(=O)c1cccc(I)c1C(=O)NC(C)(C)CS(C)(=O)=O` [FLUBENDIAMIDE], the concentration in solution in series [1] (solubility) came to 0.03 µg/mL (≈ 0.044 µM). The same compound displayed a logP in the series “physchem” of 4.2. The EC50 in series [2] worked out at 690 nM.
`CNC(=O)c1cc(Cl)cc(C)c1NC(=O)c1cc(Br)nn1-c1ncccc1Cl` [CHLORANTRANILIPROLE] yielded a solubility in series [1] of 1 µg/mL (≈ 2.07 µM). Moreover, the EC50 at Ryanodine receptor 1 was 14000 nM; in series [3], 40 nM; in series [4] it was 40 nM; with Spodoptera frugiperda, 0.02 ppm; with Heliothis virescens, 0.05 ppm; at Ryanodine receptor 2 [6], > 100000 nM. Besides, the EC50 in the series with Plutella xylostella was 0.01 ppm; at Ryanodine receptor 2 [7] it was > 100000 nM. Further, the Selectivity ratio in the series with PC-12 was 300; with C2C12, > 2000. In series [5], this compound returned a logP of 2.86.
